SMILES strings stand for the structures. Entries after “also recorded” stand apart in the source; their conditions may differ.

In assay [1] the test system is ERK1/2. Description: ERK1/2 degradation by self-assembling CLIPTACs in A375 cells (immunoblot). It counts as cell-based. Particulars: for ERK1/2 degradation, time course: Probe 1 10 μM then Tz-thalidomide 10 μM. As for the experimental part:
(§1) ERK1 and 2 levels were assessed by SDS-PAGE followed by Western Blot using a total ERK1/2 antibody. […] At low concentration (0.1 μM), the level of ERK1/2 was unchanged. […] Quantitation of the signal intensities allowed calculation of a DC50 of 490 nM.
(§2) HeLa cells (purchased from ATCC) were cultured in Eagle's Minimum Essential Medium (EMEM) supplemented with 10% FBS (Gibco, Life Technologies), 0.1% NEAA (Non-Essential Amino Acid, Gibco, Life Technologies) and 2 mM glutamine and were grown at 37° C. with 5% CO2. A375 and HCT116 cells (purchased from ATCC) were cultured in Dulbecco's Modified Eagle Medium (DMEM) supplemented with 10% FBS (Gibco, Life Technologies) and were grown at 37° C. with 5% CO2.
(§3) The medium was removed and the cells were washed with PBS (2×). A375 and HCT116 cells were lysed with TG Lysis buffer (150 μL per well) and kept on ice for 20 min. The cell lysates were centrifuged at 14000 rpm for 10 min at 4° C. and the protein concentration was determined by a Pierce™ BCA Protein Assay Kit. Samples were normalised, separated on 4-12% NuPAGE gels (Life Technologies) and transferred onto a nitrocellulose membrane (Novex). The membrane was blocked in blocking buffer (Odyssey) at r.t. for 1 hour and subjected to immunodetection using a total ERK1/2 primary antibody (p44/42 MAPK ERK1/2, Cell Signaling Technologies®, 1:1000) and anti-actin antibody (Abcam ab6276, 1:10000) in blocking buffer, at r.t. for 1 hour. After washing 3× with a Tris-buffered saline (TBS) with 0.1% Tween-20 solution (TBST), the membrane was incubated with fluorescently labelled secondary antibody (IRDye800CW Donkey Anti-Rabbit, 1:10 000 and IRDye680RD Donkey Anti-Mouse, 1:10 000) for 1 hour at r.t. in the dark. After washing 2× with a TBS solution, the membrane was imaged on an Li-Cor Biosciences Odyssey system in the 800 nm and 700 nm channels.
(§4) HeLa, A375 and HCT116 cells were seeded in 6-well plates at 1.5.10^5 cells/mL with 2 mL/well and allowed to attach overnight before being incubated with the appropriate compounds. TCO-ligand was added from a 1000× stock in DMSO-d6 (2 μL) to the plates. The cells were incubated at 37° C. in an atmosphere of 5% CO2 and air for 18 hours. Tz-Thalidomide was added from a 1000× stock in DMSO-d6 (2 μL) to the plates. The cells were incubated at 37° C. in an atmosphere of 5% CO2 and air for 18 hours.
(§5) When Carfilzomib was used, the compound was added from a 1000× stock in DMSO-d6 (2 μL) 4 hours before the addition of Tz-thalidomide. For control experiments, untagged ligands were added instead of the TCO-compound and methyl-Tz-thalidomide was used instead of Tz-thalidomide. For the time course experiments, the cells were incubated for the indicated time after the addition of Tz-thalidomide and consequently lysed.
On the technique in general: In western blotting, separated proteins are transferred to a membrane and probed.

The target of another assay is T1, ERK2 (Homo sapiens, UniProt P28482).
T1 construct: host or cells: HCT116
T1 sequence (P28482 whole entry): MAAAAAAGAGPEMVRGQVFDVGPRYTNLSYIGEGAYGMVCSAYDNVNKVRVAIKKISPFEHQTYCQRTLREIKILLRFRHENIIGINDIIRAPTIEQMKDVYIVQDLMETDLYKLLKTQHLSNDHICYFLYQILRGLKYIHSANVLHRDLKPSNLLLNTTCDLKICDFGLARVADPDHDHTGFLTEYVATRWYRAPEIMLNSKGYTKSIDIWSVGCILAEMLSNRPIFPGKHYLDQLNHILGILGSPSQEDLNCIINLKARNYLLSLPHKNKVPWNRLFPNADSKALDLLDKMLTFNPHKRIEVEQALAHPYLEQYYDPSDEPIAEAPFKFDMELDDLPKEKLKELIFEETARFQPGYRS
Description: ERK2 degradation by self-assembling CLIPTACs in HCT116 cells (immunoblot). It counts as cell-based. The conditions noted are these: high concentrations of Probe 1 18 h then Tz-thalidomide 10 μM 18 h. How it is done: as §1, §2
The medium was removed and the cells were washed with PBS (2×). A375 and HCT116 cells were lysed with TG Lysis buffer (150 μL per well) and kept on ice for 20 min. The cell lysates were centrifuged at 14000 rpm for 10 min at 4° C. and the protein concentration was determined by a Pierce™ BCA Protein Assay Kit. Samples were normalised, separated on 4-12% NuPAGE gels (Life Technologies) and transferred onto a nitrocellulose membrane (Novex). […]

The subject of another assay is A375 cells. Description: Activity in A375 cells (GI50). It is filed as cell-based. Particulars: Homo sapiens, A-375.
The target in the next assay is T2, BRD4-1 (Homo sapiens, UniProt O60885).
T2 construct: evaluated against both domains of BRD4, BRD4-1 and BRD4-2; Reaction Biology
Description: AlphaScreen histone peptide displacement assay, BRD4-1. It counts as binding. From the text: (§6) Experiments performed on HeLa cells.
(§7) FIG. 4: Biological evaluation of Tz-thalidomide against both domains of BRD4, BRD4-1 and BRD4-2. Biological evaluation of Tz-thalidomide (n=2) by AlphaScreen (performed by Reaction Biology).

A further assay deals with T3, BRD4-2 (Homo sapiens, UniProt O60885).
T3 construct: evaluated against both domains of BRD4, BRD4-1 and BRD4-2; Reaction Biology
Briefly: AlphaScreen histone peptide displacement assay, BRD4-2. It is filed as binding.
Description: as §6, §7
A general note: Alpha assays give light when donor and acceptor beads are brought close together.

The next assay concerns the target T4, BRD4 (Homo sapiens, UniProt O60885).
T4 construct: host or cells: HeLa
Description: BRD4 degradation by self-assembling CLIPTACs in HeLa cells (immunoblot). It is filed as cell-based. The conditions noted are these: for BRD4 level, time course: JQ1-TCO 10 μM then Tz-thalidomide 10 μM. How it is done: BRD4 presence was assessed by SDS-PAGE followed by Western Blot using a specific BRD4 antibody.
as §2, §3
The same procedure was followed with HeLa cells using RIPA Lysis buffer (150 μL per well) and 5% non-fat milk in TBST as blocking buffer. Immunodetection was performed using an anti-BRD4 antibody (Bethyl Laboratories, A301:985A100, 1:1000) and anti-actin antibody (Abcam ab6276, 1:10000) in 5% non-fat milk in TBST, at 4° C. for 48 hours.
as §4, §5

The test system of assay [2] is ERK1/2. Briefly: ERK1/2 degradation by self-assembling CLIPTACs in A375 cells (immunoblot). It counts as cell-based.
Another assay has as its system bromodomain family. Briefly: Thermal shift selectivity across the bromodomain family. The conditions noted are these: 10 μM, duplicate. It counts as binding. As for the experimental part:
Finally, the selectivity profile of JQ1-TCO against the BET family was determined by thermal shift assay. […] (Liu et al. (2012) ChromoHub: a data hub for navigators of chromatin-mediated signalling. Bioinformatics 28: 2205-2206)
(b) Selectivity of JQ1-TCO (10 μM, duplicate, thermal shift) across the bromodomain family. (c) Immunoblot for BRD4 and Actin showing JQ1-TCO concentration dependent downregulation of BRD4 protein levels. HeLa cells were treated with JQ1-TCO for 18 hours followed by treatment with Tz-thalidomide (10 μM) for 18 hours. (d) Immunoblot for BRD4 and Actin showing Tz-thalidomide concentration dependent downregulation of BRD4 protein levels. HeLa cells were treated with JQ1-TCO (10 μM) for 18 hours followed by treatment with Tz-thalidomide for 18 hours. (e) Immunoblot for BRD4 and Actin showing time-dependent downregulation of BRD4 protein levels. HeLa cells were treated with JQ1-TCO (10 μM) for 18 hours followed by treatment with Tz-thalidomide (10 μM) for the indicated time. […] HeLa cells were treated with (−)JQ1-TCO for 18 hours followed by treatment with Tz-thalidomide for 18 hours. […] HeLa cells were treated with JQ1-TCO for 18 hours followed by treatment with Methyl-Tz-thalidomide for 18 hours. […] Experiments performed on HeLa cells.

[3] abbreviates: 4-hour pre-treatment with Carfilzomib (1 μM) in the CLIPTAC experiment.

For `C=CC(=O)Nc1ccccc1Nc1nc(Nc2ccnc(C#CCCNC(=O)OC3CC/C=C/CCC3)c2)ncc1Cl` (stereo not drawn) [Probe 1, (4E)-Cyclooct-4-en-1-yl N-(4-{4-[(5-chloro-4-{[2-(prop-2-enamido)phenyl]amino}pyrimidin-2-yl)amino]pyridin-2-yl}but-3-yn-1-yl) carbamate], the ERK1/2 level result was “unchanged” with ERK1/2 [1] (Probe 1 0.1 μM 18 h then Tz-thalidomide 10 μM 18 h) and “unmodified” in the assay on ERK1/2 [1] (compound alone). Moreover, the “ERK1/2 degradation, time course” value is on record as “partially” in the assay with ERK1/2 [1] (after 8 hours) and “complete” with ERK1/2 [1] (after 16 hours). Besides, the ERK1/2 degradation entry in the assay on ERK1/2 [1] (Probe 1 0.3 and 1 μM 18 h then Tz-thalidomide 10 μM 18 h) is recorded as “Partial degradation”. Also, the DC50 in the assay on ERK1/2 [1] (Probe 1 18 h then Tz-thalidomide 10 μM 18 h) is 490 nM. The ERK1/2 suppression entry in the assay on ERK1/2 [1] (Probe 1 at higher concentrations 18 h then Tz-thalidomide 10 μM 18 h) is “complete”. The ERK2 degradation result on ERK2 is recorded as “complete degradation”. For the same compound, halving of growth in the assay on A375 cells (GI50) required 470 ± 140 nM.
For `Cc1sc2c(c1C)C(c1ccc(Cl)cc1)=N[C@H](CC(=O)NCCCNC(=O)OC1CC/C=C/CCC1)c1nnc(C)n1-2` (single isomer, unassigned; (-)) [(−)JQ1-TCO], the figures for the IC50 on BRD4-1 and on BRD4-2 were 13.5 ± 0.21 µM and 24.3 ± 0.92 µM, respectively. Moreover, the BRD4 degradation result on BRD4 ((−)JQ1-TCO at any concentration tested, then Tz-thalidomide 10 μM) is listed as “no BRD4 degradation”.
In the case of `CC(C)C[C@H](NC(=O)[C@H](CCc1ccccc1)NC(=O)CN1CCOCC1)C(=O)N[C@@H](Cc1ccccc1)C(=O)N[C@@H](CC(C)C)C(=O)[C@@]1(C)CO1` [Carfilzomib, reference compound], on BRD4 (setting [3]), the BRD4 level entry is on record as “remained the same as in untreated cells”. In the assay on ERK1/2 [1] (setting [3]), the ERK1/2 degradation result is given as “rescued”.
For `Cc1nnc(-c2ccc(CNC(=O)CCCCCOc3cccc4c3C(=O)N(C3CCC(=O)NC3=O)C4=O)cc2)nn1` (stereo not drawn) [Tz-thalidomide, 6-{[2-(2,6-Dioxopiperidin-3-yl)-1,3-dioxo-2,3-dihydro-1H-isoindol-4-yl]oxy}-N-{[4-(6-methyl-1,2,4,5-tetrazin-3-yl)phenyl]methyl}hexanamide], the BRD4 degradation result at BRD4 (JQ1-TCO 10 μM 18 h, then Tz-thalidomide 10 and 3 μM 18 h) is listed as “completely degraded”; at BRD4 (JQ1-TCO 10 μM 18 h, then Tz-thalidomide at lower concentrations 18 h) it was “partially”. Besides, at BRD4 (compound alone), the BRD4 level result is on record as “unaffected”. In addition, the ERK1/2 level result in the assay on ERK1/2 [1] (compound alone) was “unmodified”. Moreover, the ERK1/2 degradation profile result with ERK1/2 [2] (Probe 1 1 μM 4 hours then Tz-thalidomide 1 μM 18 hours) was “best degradation profile”. The ERK1/2 degradation result in the assay on ERK1/2 [2] (Probe 1 4 h then Tz-thalidomide 0.1 and 0.3 μM) was “not observed”.
Consider `Cc1nnc(-c2ccc(CNC(=O)CCCCCOc3cccc4c3C(=O)N(C3CCC(=O)N(C)C3=O)C4=O)cc2)nn1` (stereo not drawn) [methyl-Tz-thalidomide, N-{[4-(6-Methyl-1,2,4,5-tetrazin-3-yl)phenyl]methyl}-6-{[2-(1-methyl-2,6-dioxopiperidin-3-yl)-1,3-dioxo-2,3-dihydro-1H-isoindol-4-yl]oxy}hexanamide], for which the BRD4 level result at BRD4 (JQ1-TCO 10 μM then methyl-Tz-thalidomide 10 μM) is “remained unchanged”; on BRD4 (JQ1-TCO 10 μM then methyl-Tz-thalidomide 10 μM, listed as Methyl-Tz-thalidomide), “no BRD4 degradation”. Moreover, in the assay with ERK1/2 [1] (Probe 1 18 h then methyl-Tz-thalidomide 10 μM 18 h), the “ERK1/2 degradation compared with Tz-thalidomide” value was “far less effective; also recorded: reduced ERK1/2 degradation”.
`Cc1sc2c(c1C)C(c1ccc(Cl)cc1)=N[C@@H](CC(=O)NCCCNC(=O)OC1CC/C=C/CCC1)c1nnc(C)n1-2` (stereo partly drawn) [JQ1-TCO, (4E)-Cyclooct-4-en-1-yl N-(3-{2-[(9S)-7-(4-chlorophenyl)-4,5,13-trimethyl-3-thia-1,8,11,12-tetraazatricyclo[8.3.0.0^2,6]trideca-2(6),4,7,10,12-pentaen-9-yl]acetamido}propyl)carbamate]: the IC50 (commonly the concentration that inhibits the measured activity by half) at BRD4-1 came to 0.016 ± 0.003 µM; on BRD4-2 it was 0.063 ± 0.002 µM. Moreover, the “Selectivity across the bromodomain family (thermal shift)” value in the assay with bromodomain family is on record as “bind selectively to subfamily II”. In addition, the figures for the “BRD4 level, time course” value on BRD4 (after 16 hours), at BRD4 (after 24 hours) and at BRD4 (up to 8 hours) were “clearly dropped”, “complete degradation” and “unchanged”, respectively. For the same compound, the BRD4 degradation entry on BRD4 (JQ1-TCO 1 and 0.3 μM 18 h, then Tz-thalidomide 10 μM 18 h) was “partial degradation”; at BRD4 (JQ1-TCO 10 and 3 μM 18 h, then Tz-thalidomide 10 μM 18 h) it was “complete degradation”. Moreover, the DC50 at BRD4 (JQ1-TCO 18 h followed by fixed Tz-thalidomide (10 μM) 18 h, read-out: 50% degradation concentration (DC50) of BRD4) worked out at 420 nM. Also, the BRD4 level result at BRD4 (compound alone) was “unaffected”.

Source of the values: patent US11786600B2, “Cliptac composition” (OTSUKA PHARMACEUTICAL CO., LTD., priority 2016, dated 2023).
